Assay results as given in patent publication US9790228B2, “Heterocyclic kinase inhibitors” (Intellikine LLC, priority 2008, dated 2017).

Columns and labels:
PI3K/Akt/mTor signaling = experiment: Kinase signaling in blood (phosflow); format: cell-based; settings: anti-CD3 stimulated splenocytes or PBMC
Experimental: PI3K/Akt/mTor signaling is measured in blood cells using the phosflow method (Methods Enzymol. 2007; 434:131-54). The advantage of this method is that it is by nature a single cell assay so that cellular heterogeneity can be detected rather than population averages. This allows concurrent distinction of signaling states in different populations defined by other markers. Phosflow is also highly quantitative. To test the effects of one or more compounds disclosed herein, unfractionated splenocytes, or peripheral blood mononuclear cells are stimulated with anti-CD3 to initiate T-cell receptor signaling. The cells are then fixed and stained for surface markers and intracellular phosphoproteins.
Similarly, aliquots of whole blood are incubated for 15 minutes with vehicle (e.g. 0.1% DMSO) or kinase inhibitors at various concentrations, before addition of stimuli to crosslink the T cell receptor (TCR) (anti-CD3 with secondary antibody) or the B cell receptor (BCR) using anti-kappa light chain antibody (Fab′2 fragments). After approximately 5 and 15 minutes, samples are fixed (e.g. with cold 4% paraformaldehyde) and used for phosflow. […] The level of phosphrylation of kinase substrates such as Akt and S6 are then measured by incubating the fixed cells with labeled antibodies specific to the phosphorylated isoforms of these proteins. The population of cells are then analyzed by flow cytometry.

[1] = PBS pH 7.4, 24 hours, 37° C.; cited from earlier work
lupus disease model mice = settings: B6.Slelz.Sle3z model; cited from earlier work
[2] = control compound, 5 μM; cited from earlier work
Balb/c splenic B cells = experiment: B cell activation and proliferation assay (Alamar Blue); format: cell-based, mouse; settings: Mus musculus, B-cell
Procedure, shortened: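 Purified Balb/c splenic B cells, 50,000/well, pretreated with compound 30 min (0.2% DMSO), then stimulated with 10 ug/ml LPS or 5 ug/ml anti-IgM F(ab′)2 plus 2 ng/ml IL4 (cocktail concentrations) for 72 h at 37 °C. Alamar Blue 5 h, fluorescence 560/590 nm; IC50/EC50 calculated.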

p110δ/p85α = p110δ/p85α (Homo sapiens (Human), UniProt O00329); experiment: PI3K δ inhibition assay (TLC lipid kinase or HTRF); format: biochemical
Procedure, shortened: (§1)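 IC50 from TLC lipid kinase assay (25 mM HEPES pH 7.4, 10 mM MgCl2, 100 μg/ml phosphatidylinositol, 10 or 100 μM γ-32P-ATP, 5 min RT, phosphorimager) at 10–12 two-fold dilutions, or HTRF (10 μM PIP2, 10 μM ATP, 1 h RT) measuring PIP3 by TR-FRET; 2% DMSO final.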

p110α/p85α = p110α/p85α (Homo sapiens (Human), UniProt P42336); experiment: PI3K α inhibition assay (TLC lipid kinase or HTRF); format: biochemical
Procedure, shortened: as §1

p110β/p85α = p110β/p85α (Homo sapiens, UniProt P42338); experiment: PI3K β inhibition assay (TLC lipid kinase or HTRF); format: biochemical; settings: read-out: PI3K β IC50
Procedure, shortened: as §1

p110γ = p110γ (Homo sapiens (Human), UniProt P48736); experiment: PI3K γ inhibition assay (TLC lipid kinase or HTRF); format: biochemical
Procedure, shortened: as §1

Sequence of p110α/p85α (P42336 whole entry): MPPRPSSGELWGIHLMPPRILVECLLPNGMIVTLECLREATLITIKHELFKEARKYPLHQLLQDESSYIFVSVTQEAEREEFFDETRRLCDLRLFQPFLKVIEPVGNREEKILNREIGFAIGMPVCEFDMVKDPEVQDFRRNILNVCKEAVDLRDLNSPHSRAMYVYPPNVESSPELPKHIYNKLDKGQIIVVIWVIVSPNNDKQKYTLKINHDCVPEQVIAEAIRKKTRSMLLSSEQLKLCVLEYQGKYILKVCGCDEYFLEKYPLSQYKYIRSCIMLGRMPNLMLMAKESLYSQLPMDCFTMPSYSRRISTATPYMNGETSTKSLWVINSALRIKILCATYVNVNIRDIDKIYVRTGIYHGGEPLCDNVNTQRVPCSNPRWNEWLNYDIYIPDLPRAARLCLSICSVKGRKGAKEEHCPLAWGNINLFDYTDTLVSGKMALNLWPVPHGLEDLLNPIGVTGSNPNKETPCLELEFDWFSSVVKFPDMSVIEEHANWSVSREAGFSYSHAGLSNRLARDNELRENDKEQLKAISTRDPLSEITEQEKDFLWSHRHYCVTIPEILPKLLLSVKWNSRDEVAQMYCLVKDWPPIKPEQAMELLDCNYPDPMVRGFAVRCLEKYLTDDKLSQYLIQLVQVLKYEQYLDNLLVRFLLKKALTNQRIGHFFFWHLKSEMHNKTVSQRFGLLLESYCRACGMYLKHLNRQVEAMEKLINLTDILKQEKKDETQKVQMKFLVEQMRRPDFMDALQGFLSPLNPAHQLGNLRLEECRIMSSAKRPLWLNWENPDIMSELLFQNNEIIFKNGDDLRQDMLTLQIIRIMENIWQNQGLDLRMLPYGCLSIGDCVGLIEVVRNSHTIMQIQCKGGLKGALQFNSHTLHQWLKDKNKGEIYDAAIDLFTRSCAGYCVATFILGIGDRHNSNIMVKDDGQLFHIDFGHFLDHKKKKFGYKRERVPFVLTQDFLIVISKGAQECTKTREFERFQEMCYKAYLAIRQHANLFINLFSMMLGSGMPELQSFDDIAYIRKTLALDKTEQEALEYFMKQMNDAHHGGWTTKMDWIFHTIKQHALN
Sequence of p110α/p85α (P27986 whole entry partner): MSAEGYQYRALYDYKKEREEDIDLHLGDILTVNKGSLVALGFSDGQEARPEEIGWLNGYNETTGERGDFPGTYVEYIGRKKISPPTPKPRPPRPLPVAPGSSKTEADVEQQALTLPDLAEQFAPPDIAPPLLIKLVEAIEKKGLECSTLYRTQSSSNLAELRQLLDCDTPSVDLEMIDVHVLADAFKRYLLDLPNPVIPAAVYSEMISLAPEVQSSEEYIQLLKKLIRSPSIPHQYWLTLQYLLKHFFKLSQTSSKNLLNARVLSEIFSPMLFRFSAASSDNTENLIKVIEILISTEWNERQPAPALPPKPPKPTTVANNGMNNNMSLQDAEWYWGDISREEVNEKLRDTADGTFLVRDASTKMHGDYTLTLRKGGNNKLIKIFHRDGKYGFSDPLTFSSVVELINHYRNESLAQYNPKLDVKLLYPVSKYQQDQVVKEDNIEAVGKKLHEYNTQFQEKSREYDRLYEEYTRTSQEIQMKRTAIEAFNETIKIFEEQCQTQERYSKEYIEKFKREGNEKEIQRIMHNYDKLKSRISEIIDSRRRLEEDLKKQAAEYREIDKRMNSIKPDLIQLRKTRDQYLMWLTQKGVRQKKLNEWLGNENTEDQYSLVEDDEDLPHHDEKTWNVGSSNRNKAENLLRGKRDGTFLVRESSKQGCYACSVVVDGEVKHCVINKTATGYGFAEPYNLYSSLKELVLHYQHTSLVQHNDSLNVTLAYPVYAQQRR
Sequence of p110δ/p85α (O00329 whole entry): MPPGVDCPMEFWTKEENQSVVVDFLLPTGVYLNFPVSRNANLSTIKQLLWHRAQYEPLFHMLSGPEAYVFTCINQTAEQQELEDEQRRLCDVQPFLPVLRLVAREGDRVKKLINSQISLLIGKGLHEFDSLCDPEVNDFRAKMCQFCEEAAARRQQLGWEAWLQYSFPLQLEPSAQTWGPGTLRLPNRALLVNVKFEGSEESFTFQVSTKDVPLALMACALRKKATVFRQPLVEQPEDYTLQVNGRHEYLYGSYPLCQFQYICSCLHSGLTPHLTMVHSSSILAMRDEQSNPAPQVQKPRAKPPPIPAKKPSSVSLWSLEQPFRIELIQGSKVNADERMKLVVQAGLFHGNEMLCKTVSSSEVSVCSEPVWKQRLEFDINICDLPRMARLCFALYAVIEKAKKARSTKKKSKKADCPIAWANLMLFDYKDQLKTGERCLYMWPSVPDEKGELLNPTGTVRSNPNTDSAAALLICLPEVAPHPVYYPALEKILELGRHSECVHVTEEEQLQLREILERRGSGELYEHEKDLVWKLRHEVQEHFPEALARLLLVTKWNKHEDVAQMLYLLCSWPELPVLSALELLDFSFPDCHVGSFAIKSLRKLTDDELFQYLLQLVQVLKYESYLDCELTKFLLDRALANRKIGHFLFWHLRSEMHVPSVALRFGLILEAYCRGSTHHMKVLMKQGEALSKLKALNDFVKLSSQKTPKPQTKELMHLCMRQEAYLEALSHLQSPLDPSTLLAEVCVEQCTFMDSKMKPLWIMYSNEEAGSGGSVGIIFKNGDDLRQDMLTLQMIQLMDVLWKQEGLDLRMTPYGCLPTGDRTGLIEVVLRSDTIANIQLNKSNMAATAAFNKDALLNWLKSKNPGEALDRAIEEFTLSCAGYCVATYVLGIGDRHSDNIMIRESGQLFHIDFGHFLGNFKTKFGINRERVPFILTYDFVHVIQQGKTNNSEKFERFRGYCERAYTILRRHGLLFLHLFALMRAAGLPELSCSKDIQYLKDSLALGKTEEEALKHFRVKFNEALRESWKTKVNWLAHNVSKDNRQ
Sequence of p110δ/p85α (P27986 whole entry partner): as the sequence (P27986 whole entry partner) above
Sequence of p110γ (P48736 whole entry): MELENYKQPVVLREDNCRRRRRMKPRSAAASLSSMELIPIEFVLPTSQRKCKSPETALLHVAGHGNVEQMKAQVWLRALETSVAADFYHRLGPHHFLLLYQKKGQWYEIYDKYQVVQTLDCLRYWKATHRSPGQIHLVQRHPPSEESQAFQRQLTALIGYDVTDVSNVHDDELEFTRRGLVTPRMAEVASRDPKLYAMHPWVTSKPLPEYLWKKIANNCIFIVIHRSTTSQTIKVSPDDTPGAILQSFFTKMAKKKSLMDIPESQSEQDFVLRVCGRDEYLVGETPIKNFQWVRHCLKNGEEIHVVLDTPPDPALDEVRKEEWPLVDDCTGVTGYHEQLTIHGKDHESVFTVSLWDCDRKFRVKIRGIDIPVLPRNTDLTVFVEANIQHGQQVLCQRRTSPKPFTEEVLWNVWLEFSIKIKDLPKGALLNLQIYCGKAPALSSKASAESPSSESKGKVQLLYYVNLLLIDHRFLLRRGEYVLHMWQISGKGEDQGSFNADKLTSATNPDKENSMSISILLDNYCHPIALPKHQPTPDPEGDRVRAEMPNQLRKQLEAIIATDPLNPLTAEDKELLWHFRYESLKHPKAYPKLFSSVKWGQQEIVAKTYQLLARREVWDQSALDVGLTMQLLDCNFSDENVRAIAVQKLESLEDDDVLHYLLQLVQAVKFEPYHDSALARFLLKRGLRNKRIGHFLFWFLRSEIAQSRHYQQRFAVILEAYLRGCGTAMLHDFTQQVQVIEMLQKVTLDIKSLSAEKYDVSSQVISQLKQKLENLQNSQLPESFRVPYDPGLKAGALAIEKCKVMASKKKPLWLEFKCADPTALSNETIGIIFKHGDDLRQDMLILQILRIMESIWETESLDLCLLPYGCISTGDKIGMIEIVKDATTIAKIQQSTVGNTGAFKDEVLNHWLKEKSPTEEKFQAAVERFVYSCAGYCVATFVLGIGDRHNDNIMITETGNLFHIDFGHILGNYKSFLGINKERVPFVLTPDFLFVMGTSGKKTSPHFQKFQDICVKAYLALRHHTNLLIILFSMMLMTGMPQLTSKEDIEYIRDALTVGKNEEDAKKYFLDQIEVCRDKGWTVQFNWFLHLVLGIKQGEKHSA
Sequence of p110β/p85α (P42338 whole entry, looked up): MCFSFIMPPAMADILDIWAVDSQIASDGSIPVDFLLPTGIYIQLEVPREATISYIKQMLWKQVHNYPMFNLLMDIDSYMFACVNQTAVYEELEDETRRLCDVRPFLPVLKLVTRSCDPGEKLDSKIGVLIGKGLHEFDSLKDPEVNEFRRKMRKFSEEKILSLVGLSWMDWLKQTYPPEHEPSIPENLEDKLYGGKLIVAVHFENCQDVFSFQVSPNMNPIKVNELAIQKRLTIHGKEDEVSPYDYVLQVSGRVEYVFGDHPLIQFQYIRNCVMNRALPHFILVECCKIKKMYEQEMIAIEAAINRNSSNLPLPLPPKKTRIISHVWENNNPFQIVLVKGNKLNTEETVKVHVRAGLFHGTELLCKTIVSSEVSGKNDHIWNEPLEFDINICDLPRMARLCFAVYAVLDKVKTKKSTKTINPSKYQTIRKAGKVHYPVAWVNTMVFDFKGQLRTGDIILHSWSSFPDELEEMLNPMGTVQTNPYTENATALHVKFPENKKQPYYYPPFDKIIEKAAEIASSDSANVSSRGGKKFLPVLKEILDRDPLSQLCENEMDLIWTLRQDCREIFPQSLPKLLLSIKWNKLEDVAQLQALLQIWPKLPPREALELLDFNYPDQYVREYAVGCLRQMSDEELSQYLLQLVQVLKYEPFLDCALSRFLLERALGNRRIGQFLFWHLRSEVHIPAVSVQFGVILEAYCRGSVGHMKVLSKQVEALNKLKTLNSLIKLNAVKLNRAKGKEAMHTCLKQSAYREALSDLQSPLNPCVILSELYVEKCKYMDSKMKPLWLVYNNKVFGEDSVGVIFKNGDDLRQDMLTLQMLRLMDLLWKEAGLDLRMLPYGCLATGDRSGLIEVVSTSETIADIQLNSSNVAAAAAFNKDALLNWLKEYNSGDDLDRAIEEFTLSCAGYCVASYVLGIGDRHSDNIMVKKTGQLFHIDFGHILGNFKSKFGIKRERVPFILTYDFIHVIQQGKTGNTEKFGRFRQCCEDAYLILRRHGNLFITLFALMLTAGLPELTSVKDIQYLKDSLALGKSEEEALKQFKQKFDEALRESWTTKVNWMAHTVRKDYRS

SMILES | Akt phosphorylation (PI3K/Akt/mTor signaling) | S6 phosphorylation (PI3K/Akt/mTor signaling) | IC50 (p110δ/p85α) [nM] | IC50 (p110α/p85α) [nM] | IC50 (p110β/p85α) [nM] | IC50 (p110γ) [nM] | chemical stability [1] | lupus symptoms (lupus disease model mice) | plasma stability [2] | EC50 (Balb/c splenic B cells) [nM]
O=C(O)CCCc1ccc(N(CCCl)CCCl)cc1 [chlorambucil] | – | – | – | – | – | – | largely hydrolyzed | – | – | –
CO[C@H]1C[C@@H]2CC[C@@H](C)[C@@](O)(O2)C(=O)C(=O)N2CCCC[C@H]2C(=O)O[C@H]([C@H](C)C[C@@H]2CC[C@@H](OCCO)[C@H](OC)C2)CC(=O)[C@H](C)/C=C(\C)[C@@H](O)[C@@H](OC)C(=O)[C@H](C)C[C@H](C)/C=C/C=C/C=C/1C [RAD001] | – | – | – | – | – | – | – | ameliorate lupus symptoms | – | –
CC(C)[N+](C)(CCOC(=O)C1c2ccccc2Oc2ccccc21)C(C)C [propantheline] | – | – | – | – | – | – | – | – | intermediate | –
Nc1ncnc2ccc(-c3nn(Cc4cc5ccccc5nc4-c4ccccc4F)c4ncnc(N)c34)cc12 [Compound 138] | – | – | < 100 | > 1000 | > 1000 | < 100 | – | – | – | 100 to 1000
Cc1ccccc1-c1nc2ccccc2cc1Cn1nc(-c2cccc(O)c2)c2c(N)ncnc21 [Compound 5] | – | – | < 100 | > 1000 | > 1000 | 100 to 1000 | – | – | – | 100 to 1000
CN1CCN(c2nc3ccccc3cc2Cn2nc(-c3cc(O)cc(F)c3)c3c(N)ncnc32)CC1 [Compound 50] | – | – | < 100 | > 1000 | < 100 | > 1000 | – | – | – | < 100
Nc1nc2cc(-c3nn(Cc4cc5ccccc5nc4-c4ccccc4)c4ncnc(N)c34)ccc2o1 [Compound 145] | – | – | < 100 | > 1000 | > 1000 | < 100 | – | – | – | < 100
CCCOc1cc(N)ccc1C(=O)OCCN(CC)CC [propoxycaine] | – | – | – | – | – | – | – | – | low | –
CC(=O)Nc1nc2ccc(-c3nn(Cc4cc5ccccc5nc4N4CCCC4)c4ncnc(N)c34)cc2s1 [Compound 195] | – | – | < 100 | < 100 | > 1000 | < 100 | – | – | – | < 100
CCC(c1cc2ccccc2nc1N1CCCC1)n1nc(-c2cccc(O)c2)c2c(N)ncnc21 (stereo not shown) [Compound 39] | – | – | < 100 | > 1000 | > 1000 | > 1000 | – | – | – | < 100

Further lines, with some results ahead:

Akt phosphorylation (PI3K/Akt/mTor signaling) | S6 phosphorylation (PI3K/Akt/mTor signaling) | IC50 (p110δ/p85α) [nM] | IC50 (p110α/p85α) [nM] | IC50 (p110β/p85α) [nM] | IC50 (p110γ) [nM] | SMILES | chemical stability [1] | lupus symptoms (lupus disease model mice) | plasma stability [2] | EC50 (Balb/c splenic B cells) [nM]
enhances Akt phosphorylation | inhibits S6 phosphorylation | – | – | – | – | CO[C@H]1C[C@@H]2CC[C@@H](C)[C@@](O)(O2)C(=O)C(=O)N2CCCC[C@H]2C(=O)O[C@H]([C@H](C)C[C@@H]2CC[C@@H](O)[C@H](OC)C2)CC(=O)[C@H](C)/C=C(\C)[C@@H](O)[C@@H](OC)C(=O)[C@H](C)C[C@H](C)/C=C/C=C/C=C/1C [rapamycin] | – | – | – | –
– | – | < 100 | 100 to 1000 | > 1000 | < 100 | CC(C)Oc1nc2ccccc2cc1Cn1nc(-c2ccc3nc(N)sc3c2)c2c(N)ncnc21 [Compound 159] | – | – | – | > 1000
– | – | < 100 | > 1000 | > 1000 | < 100 | CC(=O)Nc1nc2ccc(-c3nn(Cc4cc5ccccc5nc4-c4ccccc4)c4ncnc(N)c34)cc2s1 [Compound 92] | – | – | – | < 100
– | – | < 100 | > 1000 | > 1000 | 100 to 1000 | Nc1ncnc2c1c(-c1cn[nH]c1)nn2Cc1cc2ccccc2nc1-c1ccccc1 [Compound 180] | – | – | – | 100 to 1000
– | – | < 100 | 100 to 1000 | > 1000 | < 100 | Nc1ncc2cc(-c3nn(Cc4cc5ccccc5nc4-c4ccccc4F)c4ncnc(N)c34)ccc2n1 [Compound 135] | – | – | – | < 100
– | – | < 100 | < 100 | > 1000 | < 100 | Nc1nc2ccc(-c3nn(Cc4cc5ccccc5nc4N4CCCC4)c4ncnc(N)c34)cc2s1 [Compound 79] | – | – | – | < 100
– | – | < 100 | > 1000 | > 1000 | < 100 | Cc1ccccc1-c1nc2ccccc2cc1Cn1nc(-c2cc(O)cc(F)c2)c2c(N)ncnc21 [Compound 4] | – | – | – | < 100
– | – | < 100 | 100 to 1000 | > 1000 | 100 to 1000 | CC(=O)Nc1nc2ccc(-c3nn(Cc4cc5ccccc5nc4CCN4CCCC4)c4ncnc(N)c34)cc2s1 [Compound 166] | – | – | – | < 100
– | – | < 100 | > 1000 | > 1000 | > 1000 | Cc1ccccc1-c1nc2ccccc2nc1Cn1nc(-c2cc(O)cc(F)c2)c2c(N)ncnc21 [Compound 107] | – | – | – | < 100
– | – | < 100 | 100 to 1000 | > 1000 | < 100 | Cc1ccccc1-c1nc2ccccc2cc1Cn1nc(-c2ccc3nc(N)ccc3c2)c2c(N)ncnc21 [Compound 131] | – | – | – | 100 to 1000
– | – | < 100 | < 100 | 100 to 1000 | < 100 | Cc1ccccc1-c1nc2ccccc2cc1Cn1nc(-c2ccc3nc(N)ncc3c2)c2c(N)ncnc21 [Compound 132] | – | – | – | < 100
– | – | < 100 | > 1000 | > 1000 | < 100 | CC(C)N(C)c1nc2ccccc2cc1Cn1nc(-c2ccc3nc(N)[nH]c3c2)c2c(N)ncnc21 [Compound 184] | – | – | – | 100 to 1000
